Test results: publication PMC8659069, “Optimization of 4-Anilinoquinolines as Dengue Virus Inhibitors” (Molecules, 2021)

system: DENV2; assay: microbe, parasite or virus in culture; assay type: cell-based, dengue virus (DENV2, New Guinea C strain); settings: Dengue virus, DENV2, Huh-7, 48 h, read-out: DENV Inhibition EC50

Going from `Brc1ccc2nccc(Nc3ccc4c(c3)COC4)c2c1` [Compound 29] to `O=S1(=O)Cc2ccc(Nc3ccnc4ccc(Br)cc34)cc2C1` [Compound 56], the EC50 falls from greater than 10 µM to 6.3 µM.

Going from `COc1cccc(Nc2ccnc3ccc(Br)cc23)c1OC` [Compound 33] to `Brc1ccc2nccc(Nc3cccc4sccc34)c2c1` [Compound 43], the EC50 falls from 7.8 µM to 2.9 µM (2.7-fold).

First: O=[N+]([O-])c1cccc(Nc2ccnc3ccc(C(F)(F)F)cc23)c1 [Compound 6]
Second: Oc1cccc(Nc2ccnc3ccc(C(F)(F)F)cc23)c1 [Compound 5]
The EC50 of the first is higher: greater than 10 µM for the first, 2.7 µM for the second. The second is the more potent here.

First: Cn1c(=O)[nH]c2cc(Nc3ccnc4ccc(Br)cc34)ccc21 [Compound 55]
Second: O=c1[nH]c2ccc(Nc3ccnc4ccc(Br)cc34)cc2[nH]1 [Compound 53]
The EC50 of the first is lower: 7.1 µM for the first, greater than 10 µM for the second. The first is the more potent here.

Compared with `FS(F)(F)(F)(F)c1cccc(Nc2ccnc3ccc(Br)cc23)c1` [Compound 25], `O=[N+]([O-])c1cccc(Nc2ccnc3ccc(Br)cc23)c1` [Compound 19] is higher in EC50: 1.5 µM for the first, greater than 10 µM for the second.

Compared with `Brc1ccc2nccc(Nc3cccc4c3OCO4)c2c1` [Compound 30], `Brc1ccc2nccc(Nc3cccc4c3OCC4)c2c1` [Compound 36] is lower in EC50: greater than 10 µM for the first, 5.7 µM for the second. The second is the more potent here.

Going from `COc1cccc(Nc2ccnc3ccc(OC)cc23)c1` [Compound 15] to `COc1ccc2nccc(Nc3cccc(O)c3)c2c1` [Compound 16], the EC50 rises from 4.4 µM to greater than 10 µM. The first is the more potent here.

First: COc1cccc(Nc2ccnc3ccc(S(C)(=O)=O)cc23)c1 [Compound 17]
Second: COc1cccc(Nc2ccnc3ccccc23)c1 [Compound 13]
The EC50 of the first is higher: greater than 10 µM for the first, 2.5 µM for the second.

`Brc1ccc2nccc(Nc3cccc4c3COC4)c2c1` [Compound 31] and `Brc1ccc2nccc(Nc3cccc4cnoc34)c2c1` [Compound 39] cannot be ordered by EC50: greater than 10 µM for the first, greater than 10 µM for the second.

First: CCN(CC)CCNC(=O)c1c(C)[nH]c(/C=C2\C(=O)Nc3ccc(F)cc32)c1C [Sunitinib, sunitinib, reference compound]
Second: FC1(F)Oc2cccc(Nc3ccnc4ccc(Br)cc34)c2O1 [Compound 34]
The EC50 of the first is 6.5-fold lower: 1.1 µM for the first, 7.1 µM for the second.

`CC(C)(C)Oc1cccc(Nc2ccnc3ccc(Br)cc23)c1` [Compound 26] and `Brc1ccc2nccc(Nc3cccc4ncoc34)c2c1` [Compound 41] are within 1.5-fold of each other in EC50: 2.3 µM for the first, 3.2 µM for the second.

Going from `Brc1ccc2nccc(Nc3cccc4nonc34)c2c1` [Compound 44] to `Nc1cccc(Nc2ccnc3ccc(C(F)(F)F)cc23)c1` [Compound 7], the EC50 falls from 9.2 µM to 5.9 µM (1.6-fold).

same assay, conditions: Dengue virus, DENV2, Huh-7, 48 h, read-out: DENV Inhibition EC90

Compound `CCN(CC)CCNC(=O)c1c(C)[nH]c(/C=C2\C(=O)Nc3ccc(F)cc32)c1C` [Sunitinib, sunitinib, reference compound] has an EC90 greater than 10 µM.

system: VEEV (TC-83); assay: microbe, parasite or virus in culture; assay type: cell-based, Venezuelan Equine Encephalitis virus; settings: Venezuelan equine encephalitis virus, U-87 MG, 18 h, read-out: VEEV Inhibition EC50

`CCN(CC)CCNC(=O)c1c(C)[nH]c(/C=C2\C(=O)Nc3ccc(F)cc32)c1C` [Sunitinib, sunitinib, reference compound] gave an EC50 of 4.4 µM.

same assay, conditions: Venezuelan equine encephalitis virus, U-87 MG, 18 h, read-out: VEEV Inhibition EC90

Compound `CCN(CC)CCNC(=O)c1c(C)[nH]c(/C=C2\C(=O)Nc3ccc(F)cc32)c1C` [Sunitinib, sunitinib, reference compound] has an EC90 greater than 10 µM.

system: DENV; assay: not given; parameters: method as in PMID 28240606, PMID 22448770, PMID 26039671, PMID 19223625, PMID 32631507; settings: serotype 2; erlotinib in Huh7 (Figure 2); ref [14],[29],[30],[31],[32],[33]; read-out: DENV EC50 (previously reported); cited from earlier work

Compared with `C#Cc1cccc(Nc2ncnc3cc(OCCOC)c(OCCOC)cc23)c1` [Erlotinib, erlotinib], `COc1cc(Nc2c(C#N)cnc3ccc(I)cc23)cc(OC)c1OC` [Compound 3] is 82-fold lower in EC50: 6.5 µM for the first, 0.079 µM for the second.

Going from `Clc1ccc(-c2ccc(-c3nc(NCc4cccnc4)nc4ccccc34)s2)cc1` [Compound 2] to `CC(C)(C)Oc1cccc2nc(N)nc(N)c12` [Compound 1], the EC50 falls from 0.07 µM to 0.0028 µM (25-fold).

system: not listed separately; assay: in vitro; settings: human

`Brc1ccc2nccc(Nc3ccc4c(c3)COC4)c2c1` [Compound 29] and `Brc1ccc2nccc(Nc3cccc4c3COC4)c2c1` [Compound 31] cannot be ordered by CC50: greater than 10 µM for the first, greater than 10 µM for the second.

`Brc1ccc2nccc(Nc3cccc4sccc34)c2c1` [Compound 43] and `Brc1ccc2nccc(Nc3cccc4ncoc34)c2c1` [Compound 41] cannot be ordered by CC50: greater than 10 µM for the first, greater than 10 µM for the second.

`O=[N+]([O-])c1cccc(Nc2ccnc3ccc(C(F)(F)F)cc23)c1` [Compound 6] and `Oc1cccc(Nc2ccnc3ccc(C(F)(F)F)cc23)c1` [Compound 5] cannot be ordered by CC50: greater than 10 µM for the first, greater than 10 µM for the second.

`FS(F)(F)(F)(F)c1cccc(Nc2ccnc3ccc(Br)cc23)c1` [Compound 25] and `O=[N+]([O-])c1cccc(Nc2ccnc3ccc(Br)cc23)c1` [Compound 19] cannot be ordered by CC50: greater than 10 µM for the first, greater than 10 µM for the second.

`Brc1ccc2nccc(Nc3cccc4c3OCO4)c2c1` [Compound 30] and `FC1(F)Oc2cccc(Nc3ccnc4ccc(Br)cc34)c2O1` [Compound 34] cannot be ordered by CC50: greater than 10 µM for the first, greater than 10 µM for the second.

`COc1cccc(Nc2ccnc3ccc(OC)cc23)c1` [Compound 15] and `COc1ccc2nccc(Nc3cccc(O)c3)c2c1` [Compound 16] cannot be ordered by CC50: greater than 10 µM for the first, greater than 10 µM for the second.

`COc1cccc(Nc2ccnc3ccc(S(C)(=O)=O)cc23)c1` [Compound 17] and `COc1cccc(Nc2ccnc3ccccc23)c1` [Compound 13] cannot be ordered by CC50: greater than 10 µM for the first, greater than 10 µM for the second.

Going from `CCN(CC)CCNC(=O)c1c(C)[nH]c(/C=C2\C(=O)Nc3ccc(F)cc32)c1C` [Sunitinib, sunitinib, reference compound] to `CC(C)(C)Oc1cccc(Nc2ccnc3ccc(Br)cc23)c1` [Compound 26], the CC50 falls from greater than 10 µM to 9.2 µM.

`Nc1cccc(Nc2ccnc3ccc(C(F)(F)F)cc23)c1` [Compound 7] gave a CC50 greater than 10 µM.

`COc1cccc(Nc2ccnc3ccc(Br)cc23)c1OC` [Compound 33] and `Brc1ccc2nccc(Nc3cccc4c3OCC4)c2c1` [Compound 36] cannot be ordered by CC50 at 48 h: greater than 10 µM for the first, greater than 10 µM for the second.

`Cn1c(=O)[nH]c2cc(Nc3ccnc4ccc(Br)cc34)ccc21` [Compound 55] and `O=c1[nH]c2ccc(Nc3ccnc4ccc(Br)cc34)cc2[nH]1` [Compound 53] cannot be ordered by CC50 at 48 h: greater than 10 µM for the first, greater than 10 µM for the second.

`Brc1ccc2nccc(Nc3cccc4cnoc34)c2c1` [Compound 39] and `Brc1ccc2nccc(Nc3cccc4nonc34)c2c1` [Compound 44] cannot be ordered by CC50 at 48 h: greater than 10 µM for the first, greater than 10 µM for the second.

`O=S1(=O)Cc2ccc(Nc3ccnc4ccc(Br)cc34)cc2C1` [Compound 56] showed a CC50 at 48 h greater than 10 µM.

system: not listed separately; assay: in vitro; settings: human; remark: another data set of the same source

`CCN(CC)CCNC(=O)c1c(C)[nH]c(/C=C2\C(=O)Nc3ccc(F)cc32)c1C` [Sunitinib, sunitinib, reference compound] gave a CC50 greater than 10 µM.

system: not listed separately; assay: in vitro; settings: African green monkey

Work on `CCN(CC)CCNC(=O)c1c(C)[nH]c(/C=C2\C(=O)Nc3ccc(F)cc32)c1C` [Sunitinib, sunitinib, reference compound] yielded a CC50 greater than 10 µM.
